Experimental data as given in patent EP0726261A1, “Herbidical 1,2,4 thiadiazoles” (American Cyanamid Company, priority 1995, dated 1996).

Key:
Format in all cases: in vivo
Alopecurus myosuroides [1] = assay: Preemergence herbicidal activity (Example 67); conditions: pre, 800 g/ha
Procedure, shortened: (§1)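 Test compound was dissolved in acetone containing 0.5% alkylphenol/ethylene oxide condensate, diluted with water and sprayed onto the soil surface of cups at 800g/ha in 400 L/ha (3 bar nozzle). Cups were kept under standard greenhouse conditions and rated about 1-3 weeks after treatment.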

Hordeum vulgare [2] = assay: Preemergence herbicidal activity (Example 67); conditions: pre, 800 g/ha
Procedure, shortened: as §1

Hordeum vulgare [3] = assay: Postemergence herbicidal activity (Example 67); conditions: pos, 800 g/ha
Procedure, shortened: (§2)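 Seedlings 3-6 weeks old, grown in peat/volcanic clay/bark/polyamide substrate mixed 1:3 with loamy sand, were sprayed postemergence at 800g/ha in 400 L/ha. Compound dissolved in acetone with 0.5% TRITON X-155, diluted in water. Plants kept in greenhouse and rated visually after 10-21 days.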

Chenopodium album [4] = assay: Postemergence herbicidal activity (Example 67); conditions: pos, 800 g/ha
Procedure, shortened: as §2

Galium aparine [5] = assay: Postemergence herbicidal activity (Example 67); conditions: pos, 800 g/ha
Procedure, shortened: as §2

Ipomoea hederacea [6] = assay: Postemergence herbicidal activity (Example 67); conditions: pos, 800 g/ha
Procedure, shortened: as §2

Amaranthus retroflexus [7] = assay: Postemergence herbicidal activity (Example 67); conditions: pos, 800 g/ha
Procedure, shortened: as §2

Alopecurus myosuroides [8] = assay: Postemergence herbicidal activity (Example 67); conditions: pos, 800 g/ha
Procedure, shortened: as §2

Triticum aestivum [9] = assay: Postemergence herbicidal activity (Example 67); conditions: pos, 800 g/ha
Procedure, shortened: as §2

Helianthus annuus [10] = assay: Postemergence herbicidal activity (Example 67); conditions: pos, 800 g/ha
Procedure, shortened: as §2

Zea mays [11] = assay: Postemergence herbicidal activity (Example 67); conditions: pos, 800 g/ha
Procedure, shortened: as §2

Setaria viridis [12] = assay: Postemergence herbicidal activity (Example 67); conditions: pos, 800 g/ha
Procedure, shortened: as §2

Veronica persica [13] = assay: Postemergence herbicidal activity (Example 67); conditions: pos, 800 g/ha
Procedure, shortened: as §2

Abutilon theophrasti [14] = assay: Postemergence herbicidal activity (Example 67); conditions: pos, 800 g/ha
Procedure, shortened: as §2

Chenopodium album [15] = assay: Preemergence herbicidal activity (Example 67); conditions: pre, 800 g/ha
Procedure, shortened: as §1

Galium aparine [16] = assay: Preemergence herbicidal activity (Example 67); conditions: pre, 800 g/ha
Procedure, shortened: as §1

Ipomoea hederacea [17] = assay: Preemergence herbicidal activity (Example 67); conditions: pre, 800 g/ha
Procedure, shortened: as §1

Amaranthus retroflexus [18] = assay: Preemergence herbicidal activity (Example 67); conditions: pre, 800 g/ha
Procedure, shortened: as §1

Helianthus annuus [19] = assay: Preemergence herbicidal activity (Example 67); conditions: pre, 800 g/ha
Procedure, shortened: as §1

Zea mays [20] = assay: Preemergence herbicidal activity (Example 67); conditions: pre, 800 g/ha
Procedure, shortened: as §1

Veronica persica [21] = assay: Preemergence herbicidal activity (Example 67); conditions: pre, 800 g/ha
Procedure, shortened: as §1

Abutilon theophrasti [22] = assay: Preemergence herbicidal activity (Example 67); conditions: pre, 800 g/ha
Procedure, shortened: as §1

Triticum aestivum [23] = assay: Preemergence herbicidal activity (Example 67); conditions: pre, 800 g/ha
Procedure, shortened: as §1

Setaria viridis [24] = assay: Preemergence herbicidal activity (Example 67); conditions: pre, 800 g/ha
Procedure, shortened: as §1

| Structure (SMILES) | ALO MY rating (Alopecurus myosuroides [1]) | HOR VW rating (Hordeum vulgare [2]) | HOR VW rating (Hordeum vulgare [3]) | CHE AL rating (Chenopodium album [4]) | GAL AP rating (Galium aparine [5]) | IPO HE rating (Ipomoea hederacea [6]) | AMA RE rating (Amaranthus retroflexus [7]) | ALO MY rating (Alopecurus myosuroides [8]) | TRZ AW rating (Triticum aestivum [9]) | HEL AN rating (Helianthus annuus [10]) | ZEA MX rating (Zea mays [11]) | SET VI rating (Setaria viridis [12]) | VER PE rating (Veronica persica [13]) | ABU TH rating (Abutilon theophrasti [14]) | CHE AL rating (Chenopodium album [15]) | GAL AP rating (Galium aparine [16]) | IPO HE rating (Ipomoea hederacea [17]) | AMA RE rating (Amaranthus retroflexus [18]) | HEL AN rating (Helianthus annuus [19]) | ZEA MX rating (Zea mays [20]) | other results |
| --- | --- | --- | --- | --- | --- | --- | --- | --- | --- | --- | --- | --- | --- | --- | --- | --- | --- | --- | --- | --- | --- |
| C[C@H](NC(=O)c1nsc(-c2cccc(C(F)(F)F)c2)n1)c1ccccc1 [Example 42] | 0 | 0 | 2 (6-15%) | 3 (16-29%) | 0 | 2 (6-15%) | 0 | 1 (1-5%) | 2 (6-15%) | 3 (16-29%) | 0 | 5 (45-64%) | 0 | 0 | 5 (45-64%) | 2 (6-15%) | 0 | 0 | 0 | 0 | VER PE rating (Veronica persica [21]): 2 (6-15%); ABU TH rating (Abutilon theophrasti [22]): 0; TRZ AW rating (Triticum aestivum [23]): 0; SET VI rating (Setaria viridis [24]): 0 |
| O=C(NCc1cccs1)c1nc(-c2cccc(F)c2)ns1 [Example 44] | 4 (30-44%) | 0 | 3 (16-29%) | 0 | 3 (16-29%) | 3 (16-29%) | 0 | 0 | 3 (16-29%) | 0 | 2 (6-15%) | 3 (16-29%) | 0 | 0 | 0 | 0 | 3 (16-29%) | 0 | 0 | 0 | VER PE rating (Veronica persica [21]): 0; ABU TH rating (Abutilon theophrasti [22]): 0; TRZ AW rating (Triticum aestivum [23]): 0; SET VI rating (Setaria viridis [24]): 3 (16-29%) |
| C[C@H](NC(=O)c1nc(-c2cccc(F)c2)ns1)c1ccccc1 [Example 45, (S)-3-(3-Fluorophenyl)-[1,2,4]thiadiazole-5-carboxylic acid, 1-(phenylethyl)amide] | 3 (16-29%) | 0 | 4 (30-44%) | 4 (30-44%) | 6 (65-79%) | 8 (91-99%) | 3 (16-29%) | 4 (30-44%) | 3 (16-29%) | 8 (91-99%) | 4 (30-44%) | 6 (65-79%) | 7 (80-90%) | 8 (91-99%) | 0 | 0 | 0 | 0 | 0 | 0 | VER PE rating (Veronica persica [21]): 8 (91-99%); ABU TH rating (Abutilon theophrasti [22]): 0; TRZ AW rating (Triticum aestivum [23]): 0; SET VI rating (Setaria viridis [24]): 0 |
| C[C@H](NC(=O)c1nc(-c2cccc(Cl)n2)ns1)c1ccccc1 [Example 46, (S)-3-(6-Chloro-2-pyridyl)-[1,2,4]thiadiazole-5-carboxylic acid, 1-(phenylethyl)amide] | 0 | 0 | 6 (65-79%) | 6 (65-79%) | 5 (45-64%) | 8 (91-99%) | 3 (16-29%) | 6 (65-79%) | 5 (45-64%) | 8 (91-99%) | 5 (45-64%) | 8 (91-99%) | 8 (91-99%) | 8 (91-99%) | 4 (30-44%) | 0 | 0 | 5 (45-64%) | 0 | 0 | VER PE rating (Veronica persica [21]): 5 (45-64%); ABU TH rating (Abutilon theophrasti [22]): 0; TRZ AW rating (Triticum aestivum [23]): 1 (1-5%); SET VI rating (Setaria viridis [24]): 0 |
| C[C@H](NC(=O)c1nsc(-c2ccccc2)n1)c1ccccc1 [Example 48, (S)-5-(Phenyl)-[1,2,4]thiadiazole-3-carboxylic acid, 1-(phenylethyl)amide] | 0 | 0 | 7 (80-90%) | 7 (80-90%) | 7 (80-90%) | 7 (80-90%) | 7 (80-90%) | 6 (65-79%) | 5 (45-64%) | 9 (100% effect) | 5 (45-64%) | 8 (91-99%) | 8 (91-99%) | 8 (91-99%) | 0 | 0 | 0 | 5 (45-64%) | 0 | 0 | VER PE rating (Veronica persica [21]): 5 (45-64%); ABU TH rating (Abutilon theophrasti [22]): 0; TRZ AW rating (Triticum aestivum [23]): 2 (6-15%); SET VI rating (Setaria viridis [24]): 0 |
| O=C(NCc1cccs1)c1nsc(-c2ccccc2)n1 [Example 49] | 0 | 0 | 4 (30-44%) | 4 (30-44%) | 6 (65-79%) | 3 (16-29%) | 3 (16-29%) | 5 (45-64%) | 3 (16-29%) | 8 (91-99%) | 4 (30-44%) | 8 (91-99%) | 3 (16-29%) | 4 (30-44%) | 0 | 0 | 0 | 0 | 1 (1-5%) | 0 | VER PE rating (Veronica persica [21]): 0; ABU TH rating (Abutilon theophrasti [22]): 0; TRZ AW rating (Triticum aestivum [23]): 0; SET VI rating (Setaria viridis [24]): 0 |
| O=C(NCc1cccs1)c1nc(-c2ccccc2F)ns1 [Example 50] | 3 (16-29%) | 1 (1-5%) | 2 (6-15%) | 3 (16-29%) | 2 (6-15%) | 0 | 0 | 0 | 1 (1-5%) | 3 (16-29%) | 0 | 5 (45-64%) | 0 | 0 | 0 | 0 | 0 | 0 | 0 | 0 | VER PE rating (Veronica persica [21]): 0; ABU TH rating (Abutilon theophrasti [22]): 0; TRZ AW rating (Triticum aestivum [23]): 0; SET VI rating (Setaria viridis [24]): 0 |
| COc1ccc(-c2nsc(C(=O)Nc3cccc4c3CCCC4)n2)cc1 [Example 55] | 0 | 0 | 2 (6-15%) | 0 | 3 (16-29%) | 0 | 0 | 0 | 1 (1-5%) | 2 (6-15%) | 3 (16-29%) | 4 (30-44%) | 0 | 0 | 0 | 0 | 3 (16-29%) | 0 | 0 | 0 | VER PE rating (Veronica persica [21]): 2 (6-15%); ABU TH rating (Abutilon theophrasti [22]): 1 (1-5%); TRZ AW rating (Triticum aestivum [23]): 0; SET VI rating (Setaria viridis [24]): 0 |
| C[C@H](NC(=O)c1nsc(-c2ccccc2F)n1)c1ccccc1 [Example 56, (S)-5-(2-Fluorophenyl)-[1,2,4]thiadiazole-3-carboxylic acid, 1-(phenylethyl)amide] | 0 | 0 | 5 (45-64%) | 4 (30-44%) | 6 (65-79%) | 8 (91-99%) | 7 (80-90%) | 5 (45-64%) | 5 (45-64%) | 8 (91-99%) | 4 (30-44%) | 8 (91-99%) | 7 (80-90%) | 9 (100% effect) | 2 (6-15%) | 0 | 3 (16-29%) | 5 (45-64%) | 0 | 0 | VER PE rating (Veronica persica [21]): 4 (30-44%); ABU TH rating (Abutilon theophrasti [22]): 2 (6-15%); TRZ AW rating (Triticum aestivum [23]): 0; SET VI rating (Setaria viridis [24]): 2 (6-15%) |
